Measured values from the Kinase Knowledgebase extract (Sharma et al. 2016).

molecular target: PIK3CG (human) (UniProt P48736); assay: Inhibition of PIK3CG Kinase Activity
Sequence (P48736 whole entry, looked up): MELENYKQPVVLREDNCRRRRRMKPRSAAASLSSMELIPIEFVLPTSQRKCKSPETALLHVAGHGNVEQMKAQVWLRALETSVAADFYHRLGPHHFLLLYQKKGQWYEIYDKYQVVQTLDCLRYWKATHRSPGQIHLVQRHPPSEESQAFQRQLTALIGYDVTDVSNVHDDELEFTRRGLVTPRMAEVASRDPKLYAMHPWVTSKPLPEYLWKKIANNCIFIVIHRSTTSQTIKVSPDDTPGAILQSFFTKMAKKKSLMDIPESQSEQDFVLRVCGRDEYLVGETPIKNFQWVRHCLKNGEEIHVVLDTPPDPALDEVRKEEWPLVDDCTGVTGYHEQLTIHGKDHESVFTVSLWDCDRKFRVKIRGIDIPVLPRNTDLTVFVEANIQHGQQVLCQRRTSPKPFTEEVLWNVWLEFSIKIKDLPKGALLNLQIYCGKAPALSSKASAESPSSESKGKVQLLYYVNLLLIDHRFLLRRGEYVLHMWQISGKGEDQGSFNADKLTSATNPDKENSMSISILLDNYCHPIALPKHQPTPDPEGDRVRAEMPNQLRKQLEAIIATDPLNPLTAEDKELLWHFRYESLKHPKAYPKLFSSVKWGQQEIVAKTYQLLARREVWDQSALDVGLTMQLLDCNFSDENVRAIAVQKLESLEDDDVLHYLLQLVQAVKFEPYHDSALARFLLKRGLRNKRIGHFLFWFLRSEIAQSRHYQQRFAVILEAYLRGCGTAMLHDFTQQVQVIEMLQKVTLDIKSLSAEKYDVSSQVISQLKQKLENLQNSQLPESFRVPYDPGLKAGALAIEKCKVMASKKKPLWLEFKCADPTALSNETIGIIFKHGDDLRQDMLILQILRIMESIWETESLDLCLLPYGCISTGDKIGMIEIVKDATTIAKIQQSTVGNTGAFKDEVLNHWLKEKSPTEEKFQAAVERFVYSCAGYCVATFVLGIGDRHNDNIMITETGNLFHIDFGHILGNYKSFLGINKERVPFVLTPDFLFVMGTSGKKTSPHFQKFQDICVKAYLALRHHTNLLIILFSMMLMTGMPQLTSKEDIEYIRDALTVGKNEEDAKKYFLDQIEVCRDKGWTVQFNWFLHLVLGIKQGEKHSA

Compound | Ki [nM]
CCc1cc(N2Cc3nc(-c4cnc(OC)c(OC)c4)cc(C)c3C2=O)nn1CC(F)(F)F | < 100
COc1ncc(-c2cc(C)c3c(n2)CN(c2cnn(C(C)(C)C#N)c2)C3=O)cc1OCC(F)(F)F | < 100
CCn1cc(N2C(=O)c3ccc(-c4cnc(OC)c(OC)c4)nc3[C@H]2C)cn1 | < 100
COc1cc(-c2ccc3c(n2)CN(c2cnn(C(F)(F)C(N)=O)c2)C3=O)cnc1OC | < 100
CCOc1cncc(-c2cc(C)c3c(n2)[C@@]2(CCOC2)N(c2cnn(CC(F)(F)F)c2)C3=O)c1 | < 100
Cc1cc(-c2cncc(C(=O)O)c2)nc2c1C(=O)N(c1cnn(CC(F)(F)F)c1)C2C (configuration not stated) | < 100
COc1cc(-c2cc(C)c3c(n2)CN(c2cnn(C(C)(C)C#N)c2)C3=O)cnc1OC | < 100
COc1cc(-c2ccc3c(n2)CN(c2cnn(CC(O)C(F)(F)F)c2)C3=O)cnc1OC (configuration not stated) | < 100
COc1cc(-c2ccc3c(n2)[C@H](C)N(c2ccn(CC(F)(F)F)n2)C3=O)cnc1OC | < 100
COCCOCn1cc(N2C(=O)c3ccc(-c4cnc(OC)c(OC)c4)nc3[C@H]2C)cn1 | < 100
COc1cncc(-c2cc(C)c3c(n2)[C@H](C)N(c2ccn(C)n2)C3=O)c1 | < 100
CCOc1ncc(-c2cc(C)c3c(n2)C(CC)N(c2cnn(CC(F)(F)F)c2)C3=O)cc1OC (configuration not stated) | < 100
COc1cc(-c2ccc3c(n2)CN(c2ccc(N4CCOCC4)nc2)C3=O)cnc1OC | 100 to 490
CCOc1cc(-c2cc(C)c3c(n2)C(C)N(c2cnn(CC(F)F)c2)C3=O)cnc1C (configuration not stated) | < 100
COc1cc(-c2ccc3c(n2)C(C)N(c2ccnc(CC#N)c2)C3=O)cnc1OC (configuration not stated) | < 100
COc1cc(-c2cc(C)c3c(n2)CN(c2ccnc(OCC(F)(F)F)c2)C3=O)cnc1OC | < 100
COc1cc(-c2ccc3c(c2)CN(c2ccn(C)n2)C3=O)cnc1OC | < 100
COc1cc(-c2ccc3c(n2)CN(c2cnn(Cc4cn(C)cn4)c2)C3=O)cnc1OC | < 100
COc1cc(-c2ccc3c(n2)CN(c2ccc(N4CCC(O)CC4)nc2)C3=O)cnc1OC | < 100
COc1cncc(-c2cc(C)c3c(n2)C(C)(C)N(c2cc[nH]n2)C3=O)c1 | 100 to 490
CCOc1cc(-c2cc(C)c3c(n2)CN(c2ccon2)C3=O)cnc1OCC | < 100
CCn1ccc(N2C(=O)c3c(C)cc(-c4cncc(OC(F)F)c4)nc3[C@H]2C)n1 | < 100
COc1ncc(-c2cc(C)c3c(n2)CN(c2cc[nH]n2)C3=O)cc1OC(F)F | < 100
CCOc1cc(-c2ccc3c(c2)CN(c2cnn(CC)c2)C3=O)cnc1OC | 100 to 490
COCCOCCOc1ncc(-c2cc(C)c3c(n2)CN(c2cnn(CC#N)c2)C3=O)cc1OC | < 100

Compound | Ki [nM]
COCc1cc(N2Cc3nc(-c4cnc(OC)c(OC)c4)ccc3C2=O)nn1CC(F)(F)F | < 100
COc1cc(-c2ccc3c(n2)C(C)N(c2cccc(C(O)C(F)(F)F)n2)C3=O)cnc1OC (configuration not stated) | < 100
CCOc1ccnc(N2Cc3nc(-c4cnc(OC)c(OC)c4)cc(C)c3C2=O)c1 | < 100
CCn1cc(N2Cc3nc(-c4cnc(OC)c(OC)c4)ccc3C2=O)cn1 | < 100
CCCOc1cc(-c2cc(C)c3c(n2)CN(c2ccn(C4COC4)n2)C3=O)cnc1OC | < 100
COc1cc(-c2ccc3c(n2)CN(c2ccn(CC(F)(F)F)n2)C3=O)cnc1OC | < 100
COc1cc(-c2ccc3c(n2)[C@H](OC)N(c2cnn(CC(F)(F)F)c2)C3=O)cnc1OC | < 100
CCOc1cncc(-c2cc(C)c3c(n2)[C@H](C)N(c2cnn(CC(F)(F)F)c2)C3=O)c1 | < 100
COc1cncc(-c2cc(C)c3c(n2)C(C)(C)N(c2cnn(CC(F)(F)F)c2)C3=O)c1 | < 100
Cc1cc(-c2cncc(S(C)(=O)=O)c2)nc2c1C(=O)N(c1cnn(CC(F)(F)F)c1)[C@@H]2C | < 100
C=CCNC(=O)c1cncc(-c2cc(C)c3c(n2)C(C)(C)N(c2cnn(CC(F)(F)F)c2)C3=O)c1 | < 100
CCn1cc(N2Cc3nc(-c4cnc(OC)c(OCC5CC5)c4)cc(C)c3C2=O)cn1 | < 100
COc1cncc(-c2cc(C)c3c(c2)C(C)N(c2cnn(CC(F)(F)F)c2)C3=O)c1 (configuration not stated) | < 100
COc1cc(-c2ccc3c(n2)CN(c2cnn(CC(F)F)c2)C3=O)cnc1OC | < 100
Cc1cc(-c2cncc(OCC(F)F)c2)nc2c1C(=O)N(c1cnn(CC#N)c1)C2(C)C | < 100
COc1cncc(-c2cc(C)c3c(n2)C(C)N(c2cc[nH]n2)C3=O)c1 (configuration not stated) | < 100
Cc1cc(-c2cncc(C(=O)NC(C)(C)C)c2)nc2c1C(=O)N(c1cnn(CC(F)(F)F)c1)C2(C)C | < 100
COc1cc(-c2ccc3c(n2)CN(c2cnn(C)c2)C3=O)cnc1OC | < 100
CCOc1cncc(-c2cc(C)c3c(n2)[C@H](OC)N(c2cnn(CC(F)(F)F)c2)C3=O)c1 | < 100
COc1cc(-c2ccc3c(c2)CN(c2csc(C)c2)C3=O)cnc1OC | 100 to 490
COc1cc(-c2cc(Cl)c3c(n2)CN(c2cnn(CC(F)(F)F)c2)C3=O)cnc1OC | < 100
COc1cncc(-c2cc(C)c3c(n2)C2(CCNCC2)N(c2cnn(CC(F)(F)F)c2)C3=O)c1 | 100 to 490
COc1cc(-c2ccc3c(n2)CN(c2ccnc(OCC(F)F)c2)C3=O)cnc1OC | 100 to 490
CCn1cc(N2Cc3cc(-c4ccc(OC)c(OC)n4)ccc3C2=O)cn1 | 100 to 490
COc1cc(-c2ccc3c(c2)CN(c2cnn(CC#N)c2)C3=O)cnc1Cl | 100 to 490

Compound | Ki [nM]
COc1cc(-c2cc(C)c3c(n2)C2(CCCO2)N(c2cnn(CC(F)(F)F)c2)C3=O)cnc1OC (configuration not stated) | < 100
COc1cc(-c2ccc3c(n2)CN(c2ccc(N4CCN(CCO)CC4)nc2)C3=O)cnc1OC | < 100
COc1cc(-c2cc(C)c3c(n2)CN(c2cnn(C4CC4)c2)C3=O)cnc1OC | < 100
COc1cc(-c2ccc3c(n2)CN(c2ccc(N4CCNCC4)nc2)C3=O)cnc1OC | 100 to 490
Cc1cc(-c2cccnc2)nc2c1C(=O)N(c1cnn(CC#N)c1)C2 | < 100
COc1cc(-c2cc(C)c3c(n2)CN(c2cnn(CC#N)c2)C3=O)cnc1OC | < 100
Cc1cc(-c2cncc(OC(F)F)c2)nc2c1C(=O)N(c1ccnc(OCC(F)F)c1)C2 | < 100
O=C1c2ccc(-c3cncc(OC(F)F)c3)nc2CN1c1cc[nH]n1 | 100 to 490
COc1cc(-c2ccc3c(n2)C(C)N(c2ccc(N4CCC(O)C4)nc2)C3=O)cnc1OC (configuration not stated) | 100 to 490
COc1cc(-c2cc(C)c3c(n2)[C@@H](C)N(c2cnn(CC(F)(F)F)c2)C3=O)cnc1C | < 100
COc1cc(-c2ccc3c(n2)[C@H](C)N(c2ccn(C[C@H](C)O)n2)C3=O)cnc1OC | < 100
COc1cc(-c2ccc3c(n2)CN(c2cn(CC(F)(F)F)cn2)C3=O)cnc1OC | < 100
COc1cc(-c2cc(C)c3c(n2)CN(c2nc(C)cs2)C3=O)cnc1OC | < 100
COc1ncc(-c2cc(C)c3c(n2)C(C)(C)N(c2cnn(CC(F)(F)F)c2)C3=O)cc1C(=O)NCC#N | < 100
CCCOc1cc(-c2cc(C)c3c(n2)CN(c2cn[nH]c2)C3=O)cnc1OC | < 100
COc1ncc(-c2ccc3c(n2)CN(c2cnn(CC#N)c2)C3=O)cn1 | 100 to 490
CCn1ccc(N2C(=O)c3c(C)cc(-c4cncc(OC)c4)nc3C2C)n1 (configuration not stated) | < 100
COc1ccc(-c2cc(C)c3c(c2)CN(c2cnn(CC(F)(F)F)c2)C3=O)cc1OC | < 100
COc1cc(-c2ccc3c(n2)CN(c2cnn(Cc4ccc(Cl)nc4)c2)C3=O)cnc1OC | < 100
COc1cc(-c2cc(C)c3c(n2)CN(c2cnc(NC(C)=O)c(C)c2)C3=O)cnc1OC | < 100
Cc1cc(-c2cncc(C(=O)O)c2)nc2c1C(=O)N(c1cnn(CC(F)(F)F)c1)C2(C)C | < 100
COc1cc(-c2ccc3c(n2)[C@H](C)N(c2cn(CC(F)(F)F)cn2)C3=O)cnc1OC | < 100
COc1ncc(-c2cc(C)c3c(n2)CN(c2cnn(C(C)(C)C#N)c2)C3=O)cn1 | < 100
COc1cc(-c2ccc3c(n2)CN(c2cnn(CC4(C)COC4)c2)C3=O)cnc1OC | < 100
COc1cncc(-c2cc(C)c3c(n2)[C@H](C)N(c2cnn(CC(F)(F)F)c2)C3=O)c1 | < 100

Compound | Ki [nM]
COc1cc(-c2ccc3c(n2)CN(c2cnn(C(C)C#N)c2)C3=O)cnc1OC (configuration not stated) | < 100
CCn1ncc(N2Cc3cc(-c4cnc(OC)c(OC)c4)ccc3C2=O)n1 | < 100
COc1cc(-c2cc(C)c3c(n2)CN(c2cncc(CC#N)c2)C3=O)cnc1OC | < 100
COc1ncc(-c2cc(C)c3c(n2)CN(c2cnn(CC(F)(F)F)c2)C3=O)cc1CO | < 100
COc1cc(-c2ccc3c(n2)CN(c2cnn([C@@H](C)C#N)c2)C3=O)cnc1OC | < 100
COc1cc(-c2cc(C)c3c(n2)CN(c2csc(CO)c2)C3=O)cnc1OC | < 100
Cc1cc(-c2cncc(C(=O)N(C)C(C)CO)c2)nc2c1C(=O)N(c1cnn(CC(F)(F)F)c1)C2 (configuration not stated) | 100 to 490
COC(=O)Cc1cncc(N2Cc3nc(-c4cnc(OC)c(OC)c4)cc(C)c3C2=O)c1 | < 100
CCn1cc(N2Cc3nc(-c4ccc(OC)c(OC)c4)cc(C)c3C2=O)cn1 | < 100
COc1cc(-c2cc(C)c3c(n2)CN(c2ccc(C(C)C)nc2)C3=O)cnc1OC | < 100
COc1cc(-c2cc(C)c3c(c2)C(C)N(c2cnn(CC(F)(F)F)c2)C3=O)cnc1OC (configuration not stated) | < 100
COc1cc(-c2ccc3c(n2)CN(c2nccs2)C3=O)cnc1OC | < 100
COc1cncc(-c2cc(C)c3c(n2)C(C)(C)N(c2cnn(C4CC4)c2)C3=O)c1 | 100 to 490
COc1cc(-c2ccc3c(n2)CN(c2cnn(Cc4cncn4C)c2)C3=O)cnc1OC | < 100
Cc1cc(-c2cncc(NS(=O)(=O)N(C)C)c2)nc2c1C(=O)N(c1cnn(CC(F)(F)F)c1)C2(C)C | < 100
Cc1cc(-c2cncc(C(F)(F)F)c2)cc2c1C(=O)N(c1cnn(CC(F)(F)F)c1)C2C (configuration not stated) | < 100
Cc1cc(-c2cncc(OC(F)F)c2)nc2c1C(=O)N(c1cnn(CC(F)(F)F)c1)[C@H]2C | < 100
COc1cc(-c2cc(C)c3c(n2)CN(c2cc(C)n(CCC4OCCCO4)n2)C3=O)cnc1OC | < 100
CCOc1cc(-c2cc(C)c3c(n2)C(C)(C)N(c2cnn(CC(F)F)c2)C3=O)cnc1C | < 100
CCOc1ncc(-c2cc(C)c3c(n2)[C@]2(CCCO2)N(c2ccn(CC)n2)C3=O)cc1OC | 100 to 490
CCC#CCn1cc(N2Cc3cc(-c4cnc(OC)c(OC)c4)ccc3C2=O)cn1 | < 100
COCCn1cc(N2Cc3nc(-c4cnc(OC)c(OC)c4)ccc3C2=O)ccc1=O | 100 to 490
